In PMC4421842 (Nature Communications, 2015):
Converted amounts (≈) assume the structure as drawn. Where two headings read alike, the source gives them in different places.

Tests used:
[1] = test system: WT S. aureus (ATCC 29213, WT); assay: microbe, parasite or virus in culture; type: cell-based; conditions: WT GyrA and WT ParC, three independent replicates
[2] = test system: FQR S. aureus (NRS3, FQR); assay: MIC, microdilution broth assay, FQR MRSA NRS3; type: cell-based; conditions: NRS3; S84L GyrA and S80F ParC; three independent replicates
MRSA clinical isolates = assay: microbe, parasite or virus in culture; type: cell-based, S. aureus; conditions: for MIC: Staphylococcus aureus, MRSA, read-out: MIC
Method: (§1) MRSA and P. aeruginosa isolates were from Cubist Pharmaceuticals (Lexington, MA). VRE isolates were from a previously published collection. E. coli strains were obtained either from ATCC or Professor Cari Vanderpool (UIUC). A. baumannii isolates were obtained from Dr John Quale[51].
Susceptibility testing was performed in triplicate, using the microdilution broth method as outlined by the Clinical and Laboratory Standards Institute[52]. Mueller Hinton (MH) broth was used.

E. faecalis = assay: microbe, parasite or virus in culture; type: cell-based; conditions: Enterococcus faecalis, E. faecalis
E. faecium = assay: microbe, parasite or virus in culture; type: cell-based; conditions: Enterococcus faecium, E. faecium
Ent. Spp. = assay: MIC, microdilution broth, Ent. Spp. VRE clinical isolate; type: cell-based; conditions: Enterococcus, C28036, gyrA Ser83Ile, parC Ser80Ile
From the text: as §1
(§2) Mueller Hinton (MH) broth was used.

VRE clinical isolates = assay: MIC, VRE clinical isolates panel (summary by GyrA mutation); type: cell-based, Enterococcus; conditions: panel of VRE clinical isolates (n=22)
From the text: as §1, §2

E. coli = assay: microbe, parasite or virus in culture; type: cell-based; conditions: Escherichia coli, ATCC25922, E. coli ATCC 25922; gyrA none, parC none
From the text: as §1, §2

P. aeruginosa = assay: MIC, microdilution broth, P. aeruginosa; type: cell-based
From the text: as §1, §2

A. baumannii = assay: MIC, microdilution broth, A. baumannii; type: cell-based; conditions: Acinetobacter baumannii
From the text: as §1, §2

physchem = conditions: pH 7.4
Method: Three independent replicates of each compound were performed.

SMILES: CCCn1c(=O)cc(C)c2cc3c(C)cc(=O)n4c3c(c21)OC4 [DNM-8]
- MIC against S. aureus 29213 ([1]; ATCC 29213): 16 µg/mL (≈ 51.6 µM)
- MIC ([1]; Staphylococcus aureus, ATCC29213, ATCC 29213, read-out: MIC against S. aureus 29213): 16 µg/mL (≈ 51.6 µM)
- MIC against S. aureus NRS3 [2]: 0.12 µg/mL (≈ 0.387 µM)
- MIC (MRSA clinical isolates; strain SAU.1118): 8 µg/mL (≈ 25.8 µM)
- MIC (MRSA clinical isolates; strain SAU.2996): 2 µg/mL (≈ 6.44 µM)
- MIC (MRSA clinical isolates; strain SAU.3017): 4 µg/mL (≈ 12.9 µM)
- MIC (MRSA clinical isolates; strain SAU.3021): 0.125 µg/mL (≈ 0.403 µM)
- MIC (MRSA clinical isolates; strain SAU.3025): 0.125 µg/mL (≈ 0.403 µM)
- MIC (MRSA clinical isolates; strain SAU.3026): 0.25 µg/mL (≈ 0.806 µM)
- MIC (MRSA clinical isolates; strain SAU.42): 8 µg/mL (≈ 25.8 µM)
- MIC (MRSA clinical isolates; strain SAU.447): 1 µg/mL (≈ 3.22 µM)
- MIC (MRSA clinical isolates; strain SAU.555): 0.5 µg/mL (≈ 1.61 µM)
- MIC (MRSA clinical isolates; strain SAU.669): 0.125 µg/mL (≈ 0.403 µM)
- Sensitivity of MRSA clinical isolates (MRSA clinical isolates; panel of MRSA clinical isolates (n=21)): sensitive
- MIC (E. faecalis; ATCC19433, ATCC 19433, gyrA WT, parC WT): 16 µg/mL (≈ 51.6 µM)
- MIC (E. faecalis; ATCC29212, ATCC 29212, gyrA WT, parC WT): 8 µg/mL (≈ 25.8 µM)
- MIC (E. faecalis; C21667, gyrA Ser83Ile, parC Ser80Ile): 1 µg/mL (≈ 3.22 µM)
- MIC (E. faecalis; C28535, gyrA Ser83Ile, parC Ser80Ile): 1 µg/mL (≈ 3.22 µM)
- MIC (E. faecalis; S206, gyrA Ser83 Arg, parC Ser80Ile): 4 µg/mL (≈ 12.9 µM)
- MIC (E. faecalis; S234, gyrA Ser83Ile, parC Ser80Ile Glu84Asp): 0.5 µg/mL (≈ 1.61 µM)
- MIC (E. faecium; C21190, gyrA Ser83 Arg, parC Ser80Ile): 8 µg/mL (≈ 25.8 µM)
- MIC (E. faecium; C27282, gyrA Ser83 Arg, parC Ser80Arg): 8 µg/mL (≈ 25.8 µM)
- MIC (E. faecium; C27569, gyrA Ser83Ile, parC Ser80Ile): 1 µg/mL (≈ 3.22 µM)
- MIC (E. faecium; D1, gyrA Ser83Ile, parC Ser80Ile): 0.5 µg/mL (≈ 1.61 µM)
- MIC (E. faecium; S34, gyrA Ser83Ile, parC Ser80 Arg): 2 µg/mL (≈ 6.44 µM)
- MIC (E. faecium; S51, gyrA Ser83Ile, parC Ser80Ile): 1 µg/mL (≈ 3.22 µM)
- MIC (E. faecium; S122, gyrA Ser83Ile, parC Ser80Ile): 1 µg/mL (≈ 3.22 µM)
- MIC (E. faecium; S226, gyrA Ser83Ile, parC Ser80Ile): 1 µg/mL (≈ 3.22 µM)
- MIC (E. faecium; S235, gyrA Ser83Ile, parC Ser80Ile): 1 µg/mL (≈ 3.22 µM)
- MIC (E. faecium; S344, gyrA Ser83Ile, parC Ser80Ile): 1 µg/mL (≈ 3.22 µM)
- MIC (E. faecium; S557, gyrA Ser83Ile, parC Ser80Ile): 0.5 µg/mL (≈ 1.61 µM)
- MIC (E. faecium; SL152, gyrA Ser83Ile, parC Ser80Ile): 1 µg/mL (≈ 3.22 µM)
- MIC (E. faecium; U63, gyrA Ser83 Arg, parC Ser80Ile): 4 µg/mL (≈ 12.9 µM)
- MIC (E. faecium; U275, gyrA Ser83Cys Glu87Gly, parC Ser80Ile): 4 µg/mL (≈ 12.9 µM)
- MIC (E. faecium; U464, gyrA Ser83 Arg, parC Ser80Ile): 2 µg/mL (≈ 6.44 µM)
- MIC (E. faecium; U503, gyrA Ser83 Arg, parC Ser80Ile): 4 µg/mL (≈ 12.9 µM)
- MIC (E. faecium; U563, gyrA Ser83 Arg, parC Ser80Ile): 4 µg/mL (≈ 12.9 µM)
- MIC (Ent. Spp.): 1 µg/mL (≈ 3.22 µM)
- Sensitivity of VRE clinical isolates (VRE clinical isolates): sensitive
- MIC (E. coli): > 32 µg/mL
- MIC (P. aeruginosa; PA1586 (CIP resistant clinical isolate)): > 32 µg/mL
- MIC (P. aeruginosa; Pseudomonas aeruginosa, P. aeruginosa PAO1, read-out: MIC): > 32 µg/mL
- MIC (P. aeruginosa; Pseudomonas aeruginosa, read-out: MIC): > 32 µg/mL
- MIC (A. baumannii): > 32 µg/mL
- MIC (A. baumannii; ATCC19606, A. baumannii ATCC 19606, read-out: MIC): > 32 µg/mL
- solubility at 1 h (physchem): 68 ± 9 µM (≈ 21.1 µg/mL)
